Test system: KRAS PDC multicell spheroid viability
Test: Anticancer human tumor 521955-158-R6-J3-PDC patient-derived pancreatic carcinoma cell line growth inhibition [KRAS2]
Conditions: for IC50: curve of first compound; for viability, T/C: stronger effect = lower value
Excerpt: Multicellular complex tumor spheroid response to RAS pathway inhibitors in combination with a targeted agents in patient-derived cell lines with oncogenic KRAS variants from multiple cancer types
A high-throughput screen of multi-cell type tumor spheroids was designed to identify active combinations of targeted small molecules and KRAS pathway inhibitors. Complex spheroids include a stromal component modeled by human endothelial cells (HUVEC) and fibroblasts modeled by human mesenchymal stem cells (MSCs). The concentration ranges selected for each drug and investigational agent were based upon clinically achievable concentrations if the clinical Cmax of the agent was known.
Compounds. The drugs and investigational agents: BI-3406 (NSC825286), BAY-293 (NSC824723), batoprotafib (TNO155; NSC825523), sotorasib (AMG 510; NSC818433), MRTX1257 (NSC819558), elimusertib (BAY 1895344; NSC800525), molibresib (GSK525762; NSC774829), temuterkib (LY3214996; NSC803410), venetoclax (NSC766270), alisertib (NSC759677), olaparib (NSC753686), talazoparib (NSC767125), erdafitinib (NSC781556), ipatasertib (NSC767898), cabozantinib (NSC761068), nintedanib (NSC756659), abemaciclib (NSC768073), docetaxel (NSC628503), trametinib (NSC758246), and sapanisertib (NSC764658) were obtained from the National Cancer Institute (NCI) Developmental Therapeutics Program Chemical Repository. The FDA-approved anticancer drug set is available from the Developmental Therapeutics Program. […] The stock solutions were prepared in dimethyl sulfoxide (DMSO, Sigma-Aldrich, St. Louis, MO, cat. D2650) at 800-fold the tested concentration and stored at -70 degrees C prior to their use. All drugs and investigational agents were tested over a range starting from a high concentration at or near the clinical Cmax and decreasing in half-log increments. If the clinical Cmax for an agent had not been determined, the highest concentration tested was 10 microM.
Cell Culture. All cells were maintained in an incubator at 37 degrees C and 5% CO2 with 95% humidity. The PDC lines were cultured according to standard operating procedures established by the NCI PDMR (https://pdmr.cancer.gov/sops/default.htm). Briefly, all PDCs were thawed and cultured in Matrigel-coated flasks prepared with a working solution of 1X Ham's F-12 nutrient mix, without supplementation (Invitrogen, Waltham, MA, cat. 11765054), 100 U/mL penicillin-streptomycin (Invitrogen, cat. 15140122), and 2.5% Matrigel (Corning Inc., Corning, NY, cat. 354248) for the first three passages. All PDCs were cultured in complete DMEM/F-12 media containing advanced DMEM/F-12 (Invitrogen, cat. 12634028), 4.9% defined fetal bovine serum, heat inactivated (HyClone Laboratories Inc., Logan, UT, cat. SH30070.03HI), 389 ng/mL hydrocortisone (Sigma-Aldrich, cat. H4001), 9.7 ng/mL human EGF recombinant protein (Invitrogen, cat. PHG0313), 23.4 microg/mL adenine (Sigma-Aldrich, cat. A2786), 97.3 U/mL penicillin-streptomycin (Invitrogen, cat. 15140122), 1.9 mM L-glutamine (Invitrogen, cat. 25030081), and 9.7 microM Y-27632 dihydrochloride (Tocris Bioscience, Bristol, United Kingdom, cat. 1254). The PDCs were cultured in complete DMEM/F12 media without 9.7 microM Y-27632 dihydrochloride for at least two passages prior to the screen. The established cell line HOP-62 was cultured in RPMI 1640 medium, HEPES (Invitrogen, cat. 22400105) with 10% defined fetal bovine serum (HyClone Laboratories Inc., cat. SH30070.03) and 2 mM L-glutamine (Invitrogen, cat. 25030081). The pooled donor HUVEC were cultured in endothelial cell growth medium 2 (PromoCell, Heidelberg, Germany, cat. C-22011) and the hMSC were cultured in mesenchymal stem cell growth medium 2 (PromoCell, cat. C-28009). For all experiments, HUVEC and hMSC were used at passages </=5, while the malignant cell lines were used at passages </=15. […]

[1] = second compound 0.1 µM, first compound 0.000316 µM
[2] = second compound 0.1 µM, first compound 0.001 µM
[3] = second compound 0.1 µM, first compound 0.00316 µM
[4] = second compound 0.1 µM, first compound 0.01 µM
[5] = second compound 0.1 µM, first compound 0.0316 µM
[6] = second compound 0.316 µM, first compound 0.000316 µM
[7] = second compound 0.316 µM, first compound 0.001 µM
[8] = second compound 0.316 µM, first compound 0.00316 µM
[9] = second compound 0.316 µM, first compound 0.01 µM
[10] = second compound 0.316 µM, first compound 0.0316 µM
[11] = second compound 1 µM, first compound 0.000316 µM
[12] = second compound 1 µM, first compound 0.001 µM
[13] = second compound 1 µM, first compound 0.00316 µM
[14] = second compound 1 µM, first compound 0.01 µM
[15] = second compound 1 µM, first compound 0.0316 µM
[16] = second compound 3.16 µM, first compound 0.000316 µM
[17] = second compound 3.16 µM, first compound 0.001 µM
[18] = second compound 3.16 µM, first compound 0.00316 µM
[19] = second compound 3.16 µM, first compound 0.01 µM
[20] = second compound 3.16 µM, first compound 0.0316 µM
[21] = second compound 10 µM, first compound 0.000316 µM
[22] = second compound 10 µM, first compound 0.001 µM
[23] = second compound 10 µM, first compound 0.00316 µM
[24] = second compound 10 µM, first compound 0.01 µM
[25] = second compound 10 µM, first compound 0.0316 µM
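Note: drug exposure lasted seven days.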
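Throughout, for viability, T/C: 100% = DMSO vehicle wells and lower means fewer viable cells.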

Row | SMILES | IC50 (second compound 0.1 µM) [nM] | IC50 (second compound 0.316 µM) [nM] | IC50 (second compound 1 µM) [nM] | IC50 (second compound 3.16 µM) [nM] | IC50 (second compound 10 µM) [nM] | viability, T/C [1] [%] | viability, T/C [2] [%] | viability, T/C [3] [%] | viability, T/C [4] [%] | viability, T/C [5] [%] | viability, T/C [6] [%] | viability, T/C [7] [%] | viability, T/C [8] [%] | viability, T/C [9] [%] | viability, T/C [10] [%] | viability, T/C [11] [%] | viability, T/C [12] [%] | viability, T/C [13] [%] | viability, T/C [14] [%] | viability, T/C [15] [%] | other results
1 | CC(=O)Nc1cccc(-n2c(=O)n(C3CC3)c(=O)c3c(Nc4ccc(I)cc4F)n(C)c(=O)c(C)c32)c1 + C=CC(=O)N1CCN(c2nc(=O)n(-c3c(C)ccnc3C(C)C)c3nc(-c4c(O)cccc4F)c(F)cc23)C(C)C1 | 25.5 | > 31.6 | > 31.6 | > 31.6 | 8.58 | 96.3 | 92 | 88.1 | 69.1 | 45.2 | 99.1 | 95.4 | 83.7 | 72.8 | 50.5 | 99.9 | 98.5 | 88.1 | 83.4 | 51 | viability, T/C (second compound 0.1 µM, first compound 0.0001 µM): 97.7%; viability, T/C (second compound 0.316 µM, first compound 0.0001 µM): 107%; viability, T/C (second compound 1 µM, first compound 0.0001 µM): 102%; viability, T/C (second compound 3.16 µM, first compound 0.0001 µM): 84.4%; viability, T/C [16]: 92.2%; viability, T/C [17]: 91.9%; viability, T/C [18]: 90.7%; viability, T/C [19]: 71.6%; viability, T/C [20]: 52.2%; viability, T/C (second compound 10 µM, first compound 0.0001 µM): 64.4%; viability, T/C [21]: 69.8%; viability, T/C [22]: 58.4%; viability, T/C [23]: 58.4%; viability, T/C [24]: 46.3%; viability, T/C [25]: 41%
2 | CC(C)n1nc(-c2ccc3oc(N)nc3c2)c2c(N)ncnc21 + C=CC(=O)N1CCN(c2nc(=O)n(-c3c(C)ccnc3C(C)C)c3nc(-c4c(O)cccc4F)c(F)cc23)C(C)C1 | > 100 | > 100 | > 100 | > 100 | 84.8 | 96.2 | 90.9 | 75.6 | 67.9 | 62.5 | 91.7 | 97.7 | 92.8 | 70.8 | 66.9 | 97.8 | 90.6 | 77.3 | 71.9 | 67.4 | viability, T/C (second compound 0.1 µM, first compound 0.1 µM): 55.4%; viability, T/C (second compound 0.316 µM, first compound 0.1 µM): 53.3%; viability, T/C (second compound 1 µM, first compound 0.1 µM): 53.5%; viability, T/C [16]: 93%; viability, T/C [17]: 93%; viability, T/C [18]: 81.4%; viability, T/C [19]: 70.2%; viability, T/C [20]: 66.7%; viability, T/C (second compound 3.16 µM, first compound 0.1 µM): 56.4%; viability, T/C [21]: 99%; viability, T/C [22]: 89.9%; viability, T/C [23]: 74.6%; viability, T/C [24]: 77.2%; viability, T/C [25]: 59.8%; viability, T/C (second compound 10 µM, first compound 0.1 µM): 47.5%
